{
  "source": "patent US12516293B2",
  "about": "“Reagents and methods with Wnt agonists and bioactive lipids for generating and expanding cardiomyocytes” (The Board of Trustees of the Leland Stanford Junior …, priority 2018, dated 2026)",
  "type_in_all_cases": "cell-based, human",
  "key": {"hiPSC-CMs [1]": {"tested_on": "hiPSC-CMs", "test": "Single cell RNA sequencing of day 12 hiPSC-CMs", "protocol": "For the single cell gene expression replated hiPSC-CMs were treated at day 12 with DMSO, CHIR99021 or C59 for 24 hours. At day 13 cells were digested with TrypLE Select Enzyme for about 5 minutes and dissociated with gentle pipetting. […] Single cell analysis was performed with the Loupe Cell Browser software. To investigate the global transcriptional changes of hiPSC-CMs in response to gain and loss of Wnt signaling, single cell RNA sequencing was performed in day 12 hiPSC-CMs treated for 24 hours with either DMSO (CTR), CHIR or C59."}, "hiPSCs": {"tested_on": "hiPSCs", "test": "hiPSC morphology, cell number and marker expression", "conditions": "48-hour treatment of hiPSCs, immunostaining and qPCR", "description": "The changes in gene expression was validated after treatment with bioactive lipids or CHIR from the microarray studies with immunostaining and quantitative PCR analysis (FIG. 17D-E)."}, "hiPSC-CMs [2]": {"tested_on": "hiPSC-CMs", "test": "Cell cycle activity in well-differentiated hiPSC-CMs (ki67, pHH3, cell count)", "protocol": "To address this, well-differentiated hiPSC-CMs were generated (e.g. day 30 or later) using chemically-defined protocols (Burridge et al. 2014; Churko et al. 2013; Sharma et al. 2015) (Movie S1) and treated them with S1P/LPA or CHIR or both (FIG. 18A). The presence of S1P/LPA receptors in these cells was first validated (FIG. 21). Immunofluorescence staining was then performed for ki67, a marker of cell cycle activity, and phospho Histone H3 (pHH3), a mitosis marker, in cardiac troponin T (TnT) positive cells."}},
  "data": [
    {"molecule": "Cc1c[nH]c(-c2cnc(NCCNc3ccc(C#N)cn3)nc2-c2ccc(Cl)cc2Cl)n1", "note": "[CHIR99021]", "values": [
      {"measurement": "cardiac progenitor markers Isl1 and MESP1/2 expression", "setting": "hiPSC-CMs [1]; 24 hours CHIR", "result": "did not result in increased expression"},
      {"measurement": "Wnt signaling target genes and cardiogenic transcription factors expression", "setting": "hiPSC-CMs [1]; 24 hours, CHIR vs CTR or C59", "result": "highly upregulated"},
      {"measurement": "mature cardiac genes expression", "setting": "hiPSC-CMs [1]; 24 hours, CHIR vs CTR or C59", "result": "dramatically downregulated"},
      {"measurement": "Brachyury T (Bry T) expression", "setting": "hiPSCs", "result": "increase both VIM and Brachyury T (Bry T) expression"},
      {"measurement": "VIM expression", "setting": "hiPSCs", "result": "increase both VIM and Brachyury T (Bry T) expression"},
      {"measurement": "number of hiPSC-CMs", "setting": "hiPSC-CMs [2]; treatment alone, 48 hours", "result": "increase in cell number"},
      {"measurement": "number of bi- or multinucleated cardiomyocytes", "setting": "hiPSC-CMs [2]; two-day treatment", "result": "did not increase the number of bi- or multinucleated cardiomyocytes"}
    ]}
  ]
}
